Measurements reported in US20070232588A1, “Anti-parasitic and/or anti-viral and/or anti-microbial compositions” (priority 2004, published 2007).
In brackets after ≈: the same amount, converted by molar mass.

Assays:
[1] = Countercurrent distribution, KrKb (partition coefficient x dissociation constant); type: physicochemical
Method: The diverse tertiary alkaloids contained in the basic extract of Example 1, were separated by countercurrent distribution, with dichloromethane as the stationary phase and an aqueous buffer with an incrementally decreasing pH (mobile phase). The alkaloids were recovered from the aqueous phase by extraction with dichloromethane.
The equipment used was a Craig type Post apparatus made up of 200 glass tubes (with 10 ml volumes for the lower phase and 10 ml volumes for the upper phase).

[2] = test system: Plasmodium falciparum Strain D6; assay: In vitro antiplasmodial activity (IC50), strain D6; type: cell-based
Method: (§1) The basic extracts obtained as in Example 1, from both the root and stem bark with a yield of 1.9% were used to carry out the in vitro antiplasmodial activity study on known Plasmodium falciparum strains.
(§2) Plasmodium falciparum strains D6 and W2 were used throughout this investigation. Laboratory isolates of P. falciparum were grown under controlled conditions in culture medium containing leukocyte-free red blood cells (RBCs) at 5% hematocrit (Tager and Jensen, 1976). Briefly, parasites were allowed to infect RBCs in a media consisting of RPMI 1640 plus 25 mM Hepes, 0.25 glucose, 0.2% sodium bicarbonate, 0.5% Albumax II, and 50 mg/liter hypoxanthine and grown in 5% CO2 at 37° C. […]
(§3) Assessment of parasite development and morphology. Parasite development and morphology were evaluated by microscopic examination of Giemsa-stained thin blood smears at 24, 48, and 72 hour intervals in the presence of increasing doses of the alkaloids dissolved as a stock solution in 10% (v/v) dimethylsulphoxide (DMSO) in RPMI 1640. […] Smears from drug-free cultures were always used as controls Parasitemia was measured by counting blood cells and expressed as percentage of total parasitized erythrocytes (Table 3).

[3] = test system: Plasmodium falciparum Strain W2; assay: In vitro antiplasmodial activity (IC50), strain W2; type: cell-based
Method: as §1, §2, §3

[4] = test system: Leishmania infantum promastigotes; assay: In vitro leishmanicidal activity, MTT assay; type: cell-based; settings: for Fold Increase (IC50), voacamine with respect to the basic extract: ratio of IC50
Method: Preparation of the anti-leishmanial compositions: The total plant extract was dissolved in DMSO as a 50 mg/mL stock. The purified alkaloid, voacamine, was dissolved in 50% DMSO at a 3 mg/mL stock.
In vitro drug testing. […] 10 μL of 3-(4,5-dimethylthiazol-2-yl)-2,5-diphenyl-2H-tetrazol bromide (MTT, Sigma, 5 mg/mL in PBS) were added to each well and plates were incubated for an additional period of 5 hours. Only viable cells are able to reduce the MTT compound to produce water-insoluble formazan crystals of a purple color. These crystals were dissolved by adding 100 μL of SDS 20% and incubating overnight at 37° C. The absorbance was subsequently read at 540 nanometers using a microplate reader (Beckman Biomek 2000). Cell survival was determined by dividing the absorbance of the compound at a given concentration by the absorbance of control cells grown in the absence of drug. The 50% inhibitory concentration (IC50) values were graphically determined after plotting the percentage of growth as a function of drug concentration. All experiments were performed in duplicate.

For CC=C1CN(C)C2Cc3c([nH]c4ccccc34)C(=O)CC1C2CO (stereo not drawn) [16-epi-affinine], the “KrKb (Kr partition coefficient aqueous phase/organic phase, Kb dissociation constant)” value [1] was 2.5×10^−9.

With C/C=C1/CN2[C@H]3Cc4c(n(C)c5ccccc45)[C@@H]2C[C@@H]1[C@@]3(CO)C(=O)OC [voachalotine] the “KrKb (Kr partition coefficient aqueous phase/organic phase, Kb dissociation constant)” value [1] was 2×10^−11.

In the case of C/C=C1/CN2[C@H]3C[C@@H]1[C@@H](CO)[C@@H]2Cc1c3n(C)c2ccccc12 [affinisine], the “KrKb (Kr partition coefficient aqueous phase/organic phase, Kb dissociation constant)” value [1] is reported as 7×10^−10.

Compound CC=C1CN(C)C2Cc3c([nH]c4ccccc34)C(c3cc4[nH]c5c(c4cc3OC)CCN3CC4CC(CC)C3C5(C(=O)OC)C4)CC1C2C(=O)OC (stereo not drawn) [Ex. 2, voacamine] has an IC50 [2] of 0.238 µg/mL (≈ 0.338 µM), an IC50 [3] of 0.29 µg/mL (≈ 0.411 µM) and an IC90 ([4]; Leishmania infantum, 72 h) of 7 µg/mL (≈ 9.93 µM). For the same compound, the IC50 ([4]; Leishmania infantum, 72 h, read-out: IC50 (concentration required to kill 50% of the parasites)) was 3.3 µg/mL (≈ 4.68 µM), the “concentration producing complete cellular destruction” value ([4]; before 72 hours) was 10 µg/mL and the “Fold Increase (IC50), voacamine with respect to the basic extract” value ([4]; listed as Voacamine) was 20.7 fold. For the same compound, the “Fold Increase (IC50), voacamine with respect to the basic extract” value ([4]; listed as voacamine) was 20 fold and the “Fold Increase (IC90), voacamine with respect to the basic extract” value ([4]; ratio of IC90) was 15.7 fold.

With N-demethylvoacamine the “KrKb (Kr partition coefficient aqueous phase/organic phase, Kb dissociation constant)” value [1] was 3.5×10^−11.
